Results taken from patent US8598085B2, “2-(2-fluoro-substituted phenyl)-6-amino-5-chloro-4-pyrimidinecarboxylates and their use as herbicides” (Dow AgroSciences LLC, priority 2007, dated 2013).

How the values were obtained:
[1] = test system: ABUTH—Velvetleaf (Abutilon theophrasti); assay: General postemergence herbicidal activity, velvetleaf; format: in vivo; details: post-emergence, 336 h, post-emergent, rate 140 g ai/ha, visual score after 14 days (0 no injury, 100 complete kill), read-out: % Growth Reduction ABUTH
Method: (§1) Seeds or nutlets of the desired test plant species were planted in Sun Gro MetroMix® 306 planting mixture, which typically has a pH of 6.0 to 6.8 and an organic matter content of about 30 percent, in plastic pots with a surface area of 64 square centimeters. When required to ensure good germination and healthy plants, a fungicide treatment and/or other chemical or physical treatment was applied. The plants were grown for 7-21 days in a greenhouse with an approximate 15 hour photoperiod which was maintained at about 23-29° C. during the day and 22-28° C. during the night. Nutrients and water were added on a regular basis and supplemental lighting was provided with overhead metal halide 1000-Watt lamps as necessary. The plants were employed for testing when they reached the first or second true leaf stage.
(§2) A weighed amount, determined by the highest rate to be tested, of each test compound was placed in a 25 mL glass vial and was dissolved in 4 mL of a 97:3 v/v (volume/volume) mixture of acetone and dimethyl sulfoxide (DMSO) to obtain concentrated stock solutions. […] The concentrated stock solutions obtained were diluted with 20 mL of an aqueous mixture containing acetone, water, isopropyl alcohol, DMSO, Atplus 411F crop oil concentrate, and Triton X-155 surfactant in a 48.5:39:10:1.5:1.0:0.02 v/v ratio to obtain spray solutions containing the highest application rates. Additional application rates were obtained by serial dilution of 12 mL of the high rate solution into a solution containing 2 mL of 97:3 v/v (volume/volume) mixture of acetone and DMSO and 10 mL of an aqueous mixture containing acetone, water, isopropyl alcohol, DMSO, Atplus 411F crop oil concentrate, and Triton X-155 surfactant in a 48.5:39:10:1.5:1.0:0.02 v/v ratio to obtain ½X, ¼X, ⅛X and 1/16X rates of the high rate. Compound requirements are based upon a 12 mL application volume at a rate of 187 L/ha. Formulated compounds were applied to the plant material with an overhead Mandel track sprayer equipped with 8002E nozzles calibrated to deliver 187 L/ha over an application area of 0.503 square meters at a spray height of 18 inches […] above the average plant canopy height. Control plants were sprayed in the same manner with the solvent blank.
(§3) The treated plants and control plants were placed in a greenhouse as described above and watered by sub-irrigation to prevent wash-off of the test compounds. After 14 days, the condition of the test plants as compared with that of the untreated plants was determined visually and scored on a scale of 0 to 100 percent where 0 corresponds to no injury and 100 corresponds to complete kill.

[2] = test system: POLCO—Wild buckwheat (Polygonum convolvulus); assay: General postemergence herbicidal activity, wild buckwheat; format: in vivo; details: Fallopia convolvulus, post-emergence, 336 h; post-emergent, rate 140 g ai/ha, visual score after 14 days (0 no injury, 100 complete kill); read-out: % Growth Reduction POLCO
Method: as §1, §2, §3

[3] = test system: CIRAR—Canada thistle (Cirsium arvense); assay: General postemergence herbicidal activity, Canada thistle; format: in vivo; details: post-emergence, 336 h, post-emergent, rate 140 g ai/ha, visual score after 14 days (0 no injury, 100 complete kill), read-out: % Growth Reduction CIRAR
Method: as §1, §2, §3

[4] = test system: ECHCG—Barnyardgrass (Echinochloa crus-galli); assay: General postemergence herbicidal activity, barnyardgrass; format: in vivo; details: post-emergence, 336 h, post-emergent, rate 140 g ai/ha, visual score after 14 days (0 no injury, 100 complete kill), read-out: % Growth Reduction ECHCG
Method: as §1, §2, §3

[5] = test system: ZEAMX—Corn (Zea mays); assay: General preemergence herbicidal activity, corn; format: in vivo; details: pre-emergent, rate 140 g ai/ha, visual score after 20-22 days (0 no injury, 100 complete kill or no emergence), read-out: % Growth Inhibition ZEAMX
Text: (§4) Seeds of the desired test plant species were planted in a soil matrix prepared by mixing a loam soil (43 percent silt, 19 percent clay, and 38 percent sand, with a pH of about 8.1 and an organic matter content of about 1.5 percent) and sand in a 70 to 30 ratio. The soil matrix was contained in plastic pots with a surface area of 113 square centimeters. When required to ensure good germination and healthy plants, a fungicide treatment and/or other chemical or physical treatment was applied. A weighed amount, determined by the highest rate to be tested, of each test compound was placed in a 25 mL glass vial and was dissolved in 6 mL of a 97:3 v/v (volume/volume) mixture of acetone and DMSO to obtain concentrated stock solutions. […] The stock solutions obtained were diluted with 18 mL of a 0.1% v/v aqueous solution of Tween® 20 surfactant to obtain spray solutions containing the highest application rate. Additional application rates were obtained by serial dilution of 12 mL of the high rate solution into a solution containing 3 mL of 97:3 v/v mixture of acetone and DMSO and 9 mL of the 0.1% v/v aqueous solution of Tween® 20 surfactant to obtain 1⁄2X, 1⁄4X, 1⁄8X and 1/16X rates of the high rate. Compound requirements are based upon a 12 mL application volume at a rate of 187 L/ha. Formulated compounds were applied to the plant material with an overhead Mandel track sprayer equipped with […] nozzles calibrated to deliver 187 L/ha over an application area of 0.503 square meters at a spray height of 18 inches (43 cm) above the soil surface. Control plants were sprayed in the same manner with the solvent blank. The treated pots and control pots were placed in a greenhouse maintained with an approximate 15 hour photoperiod and temperatures of about 23-29° C. during the day and 22-28° C. during the night. Nutrients and water were added on a regular basis and supplemental lighting was provided with overhead metal halide 1000-Watt lamps as necessary. The water was added by top-irrigation. After 20-22 days, the condition of the test plants that germinated and grew as compared with that of the untreated plants that emerged and grew was determined visually and scored on a scale of 0 to 100 percent where 0 corresponds to no injury and 100 corresponds to complete kill or no emergence.

[6] = test system: CHEAL—Common lambsquarters (Chenopodium album); assay: General preemergence herbicidal activity, common lambsquarters; format: in vivo; details: pre-emergent, rate 140 g ai/ha, visual score after 20-22 days (0 no injury, 100 complete kill or no emergence), read-out: % Growth Inhibition CHEAL
Text: as §4

[7] = test system: ABUTH—Velvetleaf (Abutilon theophrasti); assay: General preemergence herbicidal activity, velvetleaf; format: in vivo; details: pre-emergent, rate 140 g ai/ha, visual score after 20-22 days (0 no injury, 100 complete kill or no emergence), read-out: % Growth Inhibition ABUTH
Text: as §4

[8] = test system: HELAN—Common sunflower (Helianthus annuus); assay: General preemergence herbicidal activity, common sunflower; format: in vivo; details: pre-emergent, rate 140 g ai/ha, visual score after 20-22 days (0 no injury, 100 complete kill or no emergence), read-out: % Growth Inhibition HELAN
Text: as §4

[9] = test system: SORVU—Common sorghum (Sorghum vulgare); assay: General preemergence herbicidal activity, common sorghum; format: in vivo; details: pre-emergent, rate 140 g ai/ha, visual score after 20-22 days (0 no injury, 100 complete kill or no emergence), read-out: % Growth Inhibition SORVU
Text: as §4

melting point [°C]	SMILES	pest or weed control at 140 g/ha [1] [%]	pest or weed control at 140 g/ha [2] [%]	pest or weed control at 140 g/ha [3] [%]	pest or weed control at 140 g/ha [4] [%]	inhibition at 140 g/ha [5] [%]	inhibition at 140 g/ha [6] [%]	inhibition at 140 g/ha [7] [%]	inhibition at 140 g/ha [8] [%]	inhibition at 140 g/ha [9] [%]
194 to 196	Nc1nc(-c2ccc(Cl)cc2F)nc(C(=O)O)c1Cl [Compound 11, 6-Amino-5-chloro-2-(4-chloro-2-fluorophenyl)pyrimidine-4-carboxylic acid]	99	100	100	85	0	100	90	95	95
209 to 211	Nc1nc(-c2ccc(Cl)c(F)c2F)nc(C(=O)O)c1Cl [Compound 12, 6-Amino-5-chloro-2-(4-chloro-2,3-difluorophenyl)pyrimidine-4-carboxylic acid]	100	100	90	90	15	100	100	100	90
	Nc1nc(-c2ccc(C(F)(F)F)cc2F)nc(C(=O)O)c1Cl [Compound 15, 6-Amino-5-chloro-2-(2-fluoro-4-trifluoromethylphenyl)pyrimidine-4-carboxylic acid]	40	65	80	50	65	60	10	10	0
	Nc1nc(-c2ccc(C(F)(F)F)c(F)c2F)nc(C(=O)O)c1Cl [Compound 16, 6-Amino-5-chloro-2-(2,3-difluoro-4-trifluoromethylphenyl)pyrimidine-4-carboxylic acid]	65	95	90	90	30	100	60	65	60
